Data taken from ChEMBL document CHEMBL1157656, “Fragment-based deconstruction of Bcl-xL inhibitors” (J Med Chem, 2010).
Where a name gives a salt, the structure may show the parent alone. Values belong to the compound of their own block, whether it stands above or below them.

Columns and labels:
Bcl-2-like protein 1 [1] = biological target: T1, Bcl-2-like protein 1 (Homo sapiens, UniProt Q07817); assay: Binding affinity to 6xHis-tagged human Bcl-xL
Bcl-2-like protein 1 [2] = biological target: T1, Bcl-2-like protein 1; assay: Inhibition of Bcl-xL
Bcl-2-like protein 1 [3] = biological target: T1, Bcl-2-like protein 1; assay: Inhibition of Bcl-xL expressed in Saccharomyces cerevisiae

T1 sequence (Q07817 whole entry): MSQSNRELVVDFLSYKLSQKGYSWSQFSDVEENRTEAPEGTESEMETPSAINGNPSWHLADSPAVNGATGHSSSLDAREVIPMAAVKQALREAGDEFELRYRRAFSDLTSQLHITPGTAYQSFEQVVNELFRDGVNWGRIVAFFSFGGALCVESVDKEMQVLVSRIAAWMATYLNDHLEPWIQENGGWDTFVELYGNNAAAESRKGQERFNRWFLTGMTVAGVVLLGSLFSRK

SMILES: Oc1ccccc1-c1ccccc1 [2-PHENYLPHENOL]
Kd (Bcl-2-like protein 1 [1]): 2700 µM

SMILES: Cc1cc2c(C(C)C)c(O)c(O)c(C=O)c2c(O)c1-c1c(C)cc2c(C(C)C)c(O)c(O)c(C=O)c2c1O [GOSSYPOL]
IC50 (Bcl-2-like protein 1 [2]): 0.48 µM

IC50 (Bcl-2-like protein 1 [3]): 4.69 µM
SMILES: COC1=CC(c2cc3ccccc3[nH]2)=N/C1=C\c1[nH]c(C)cc1C [OBATOCLAX MESYLATE]
